Assay results: publication PMC3867539 (Angewandte Chemie (International ed. in English), 2013)

How the values were obtained:
CYP71A12 = CYP71A12 (Arabidopsis thaliana, UniProt O49340); conditions: estimate only, not a measured constant; Cys as thiol donor
CYP71A13 = CYP71A13 (Arabidopsis thaliana, UniProt O49342); conditions: estimate only, not a measured constant; Cys as thiol donor
Chain of CYP71A13 (O49342 whole entry): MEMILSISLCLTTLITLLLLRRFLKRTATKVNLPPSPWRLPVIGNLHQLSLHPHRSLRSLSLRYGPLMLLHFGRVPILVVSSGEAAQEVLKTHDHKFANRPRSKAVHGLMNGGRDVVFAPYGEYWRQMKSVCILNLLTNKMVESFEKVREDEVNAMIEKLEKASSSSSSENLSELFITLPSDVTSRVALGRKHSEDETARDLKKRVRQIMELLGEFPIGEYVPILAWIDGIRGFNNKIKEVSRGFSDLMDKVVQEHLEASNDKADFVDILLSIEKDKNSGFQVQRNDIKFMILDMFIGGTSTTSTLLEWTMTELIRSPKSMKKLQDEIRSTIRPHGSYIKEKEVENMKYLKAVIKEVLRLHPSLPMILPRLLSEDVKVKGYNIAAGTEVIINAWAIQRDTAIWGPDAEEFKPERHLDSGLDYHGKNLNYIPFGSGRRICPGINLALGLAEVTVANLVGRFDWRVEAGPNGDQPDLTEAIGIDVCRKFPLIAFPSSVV

Chain of CYP71A12 (O49340 whole entry): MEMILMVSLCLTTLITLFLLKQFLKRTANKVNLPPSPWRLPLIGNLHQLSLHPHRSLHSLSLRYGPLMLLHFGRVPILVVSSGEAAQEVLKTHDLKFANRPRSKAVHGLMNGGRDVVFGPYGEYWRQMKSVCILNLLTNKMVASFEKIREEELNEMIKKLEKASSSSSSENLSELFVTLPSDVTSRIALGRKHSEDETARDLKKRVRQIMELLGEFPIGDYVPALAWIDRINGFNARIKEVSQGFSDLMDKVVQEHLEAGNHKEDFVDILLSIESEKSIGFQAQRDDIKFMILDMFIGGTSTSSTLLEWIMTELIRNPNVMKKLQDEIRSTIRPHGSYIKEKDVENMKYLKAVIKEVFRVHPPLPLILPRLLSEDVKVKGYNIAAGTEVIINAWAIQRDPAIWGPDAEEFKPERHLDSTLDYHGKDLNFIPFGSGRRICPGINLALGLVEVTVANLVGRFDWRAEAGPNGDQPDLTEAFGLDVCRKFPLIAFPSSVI

N#CCc1c[nH]c2ccccc12 [IAN]
Km (CYP71A12): > 100 µM
Km (CYP71A13): > 100 µM
